Measurements: ChEMBL document CHEMBL2057203, “Synthesis and evaluation of novel F-18 labeled 4-aminoquinazoline derivatives: potential PET imaging agents for tumor detection” (Bioorg Med Chem Lett, 2012)

Tests used:
Lung [1] = assay: Biodistribution in S180 tumor-bearing mouse lungs at 8 to 10 uCi, iv after 5 mins by gamma counting; type: ADME, organism-based; conditions: in vivo
Nucleic Acid [2] = assay: Ratio of drug level in tumor to blood in S180 tumor-bearing mouse at 8 to 10 uCi, iv at 60 mins by gamma counting; type: ADME, organism-based; conditions: tumour, 1 h
Nucleic Acid [3] = assay: Ratio of drug level in tumor to brain in S180 tumor-bearing mouse at 8 to 10 uCi, iv at 5 mins by gamma counting; type: ADME, organism-based; conditions: in vivo
Blood [4] = assay: Clearance in S180 tumor-bearing mouse blood at 8 to 10 uCi, iv at 120 mins; type: ADME, organism-based; conditions: in vivo, 2 h
Heart [5] = assay: Biodistribution in S180 tumor-bearing mouse heart at 8 to 10 uCi, iv after 30 mins by gamma counting; type: ADME, organism-based; conditions: in vivo, 0.5 h
Nucleic Acid [6] = assay: Ratio of drug level in tumor to brain in S180 tumor-bearing mouse at 8 to 10 uCi, iv at 60 mins by gamma counting; type: ADME, organism-based; conditions: in vivo, 1 h
Muscle tissue [7] = assay: Biodistribution in S180 tumor-bearing mouse muscle at 8 to 10 uCi, iv after 5 mins by gamma counting; type: ADME, organism-based; conditions: in vivo
Kidney [8] = assay: Biodistribution in S180 tumor-bearing mouse kidney at 8 to 10 uCi, iv after 30 mins by gamma counting; type: ADME, organism-based; conditions: in vivo, 0.5 h
Spleen [9] = assay: Biodistribution in S180 tumor-bearing mouse spleen at 8 to 10 uCi, iv after 30 mins by gamma counting; type: ADME, organism-based; conditions: in vivo, 0.5 h
[10] = Chemical stability in PBS after 2 hrs by radio-HPLC analysis at room temperature; type: physicochemical; conditions: buffer
Stomach [11] = assay: Biodistribution in S180 tumor-bearing mouse stomach at 8 to 10 uCi, iv after 5 mins by gamma counting; type: ADME, organism-based; conditions: in vivo
Stomach [12] = assay: Biodistribution in S180 tumor-bearing mouse stomach at 8 to 10 uCi, iv after 60 mins by gamma counting; type: ADME, organism-based; conditions: in vivo, 1 h
Blood [13] = assay: Biodistribution in S180 tumor-bearing mouse blood at 8 to 10 uCi, iv after 120 mins by gamma counting; type: ADME, organism-based; conditions: in vivo, 2 h
Nucleic Acid [14] = assay: Ratio of drug level in tumor to muscle in S180 tumor-bearing mouse at 8 to 10 uCi, iv at 30 mins by gamma counting; type: ADME, organism-based; conditions: in vivo, 0.5 h
Lung [15] = assay: Biodistribution in S180 tumor-bearing mouse lung at 8 to 10 uCi, iv after 30 mins by gamma counting; type: ADME, organism-based; conditions: in vivo, 0.5 h
Muscle tissue [16] = assay: Biodistribution in S180 tumor-bearing mouse muscle at 8 to 10 uCi, iv after 30 mins by gamma counting; type: ADME, organism-based; conditions: in vivo, 0.5 h
Nucleic Acid [17] = assay: Ratio of drug level in tumor to blood in S180 tumor-bearing mouse at 8 to 10 uCi, iv at 5 mins by gamma counting; type: ADME, organism-based; conditions: tumour
Brain [18] = assay: Biodistribution in S180 tumor-bearing mouse brain at 8 to 10 uCi, iv after 30 mins by gamma counting; type: ADME, organism-based; conditions: in vivo, 0.5 h
Liver [19] = assay: Biodistribution in S180 tumor-bearing mouse liver at 8 to 10 uCi, iv after 5 mins by gamma counting; type: ADME, organism-based; conditions: in vivo
Kidney [20] = assay: Biodistribution in S180 tumor-bearing mouse kidneys at 8 to 10 uCi, iv after 5 mins by gamma counting; type: ADME, organism-based; conditions: in vivo
Kidney [21] = assay: Biodistribution in S180 tumor-bearing mouse kidney at 8 to 10 uCi, iv after 120 mins by gamma counting; type: ADME, organism-based; conditions: in vivo, 2 h
Lung [22] = assay: Biodistribution in S180 tumor-bearing mouse lung at 8 to 10 uCi, iv after 120 mins by gamma counting; type: ADME, organism-based; conditions: in vivo, 2 h
Stomach [23] = assay: Biodistribution in S180 tumor-bearing mouse stomach at 8 to 10 uCi, iv after 30 mins by gamma counting; type: ADME, organism-based; conditions: in vivo, 0.5 h
Mus musculus [24] = assay: Biodistribution in S180 cells xenografted in mouse tumor at 8 to 10 uCi, iv after 60 mins by gamma counting; type: ADME, organism-based, Neoplasm, CCRF S-180; conditions: in vivo, 1 h
Plasma = assay: Metabolic stability in mouse plasma after 2 hrs by radio-HPLC analysis; type: ADME, cell-free
Kidney [25] = assay: Biodistribution in S180 tumor-bearing mouse kidney at 8 to 10 uCi, iv after 60 mins by gamma counting; type: ADME, organism-based; conditions: in vivo, 1 h
Mus musculus [26] = assay: Biodistribution in S180 cells xenografted in mouse tumor at 8 to 10 uCi, iv after 5 mins by gamma counting; type: ADME, organism-based, Neoplasm, CCRF S-180; conditions: in vivo
Nucleic Acid [27] = assay: Ratio of drug level in tumor to muscle in S180 tumor-bearing mouse at 8 to 10 uCi, iv at 120 mins by gamma counting; type: ADME, organism-based; conditions: in vivo, 2 h
Lung [28] = assay: Biodistribution in S180 tumor-bearing mouse lung at 8 to 10 uCi, iv after 60 mins by gamma counting; type: ADME, organism-based; conditions: in vivo, 1 h
Nucleic Acid [29] = assay: Ratio of drug level in tumor to blood in S180 tumor-bearing mouse at 8 to 10 uCi, iv at 30 mins by gamma counting; type: ADME, organism-based; conditions: tumour, 0.5 h
Nucleic Acid [30] = assay: Ratio of drug level in tumor to blood in S180 tumor-bearing mouse at 8 to 10 uCi, iv at 120 mins by gamma counting; type: ADME, organism-based; conditions: tumour, 2 h
Blood [31] = assay: Biodistribution in S180 tumor-bearing mouse blood at 8 to 10 uCi, iv after 60 mins by gamma counting; type: ADME, organism-based; conditions: in vivo, 1 h
Blood [32] = assay: Biodistribution in S180 tumor-bearing mouse blood at 8 to 10 uCi, iv after 5 mins by gamma counting; type: ADME, organism-based; conditions: in vivo
Muscle tissue [33] = assay: Biodistribution in S180 tumor-bearing mouse muscle at 8 to 10 uCi, iv after 60 mins by gamma counting; type: ADME, organism-based; conditions: in vivo, 1 h
Liver [34] = assay: Biodistribution in S180 tumor-bearing mouse liver at 8 to 10 uCi, iv after 30 mins by gamma counting; type: ADME, organism-based; conditions: in vivo, 0.5 h
Nucleic Acid [35] = assay: Ratio of drug level in tumor to brain in S180 tumor-bearing mouse at 8 to 10 uCi, iv at 30 mins by gamma counting; type: ADME, organism-based; conditions: in vivo, 0.5 h
Nucleic Acid [36] = assay: Ratio of drug level in tumor to muscle in S180 tumor-bearing mouse at 8 to 10 uCi, iv at 5 mins by gamma counting; type: ADME, organism-based; conditions: in vivo
[37] = Chemical stability in PBS after 2 hrs by radio-HPLC analysis at 60 degC; type: physicochemical; conditions: buffer
Heart [38] = assay: Biodistribution in S180 tumor-bearing mouse heart at 8 to 10 uCi, iv after 120 mins by gamma counting; type: ADME, organism-based; conditions: in vivo, 2 h
Brain [39] = assay: Biodistribution in S180 tumor-bearing mouse brain at 8 to 10 uCi, iv after 120 mins by gamma counting; type: ADME, organism-based; conditions: in vivo, 2 h
Nucleic Acid [40] = assay: Ratio of drug level in tumor to muscle in S180 tumor-bearing mouse at 8 to 10 uCi, iv at 60 mins by gamma counting; type: ADME, organism-based; conditions: in vivo, 1 h
Mus musculus [41] = assay: Biodistribution in S180 cells xenografted in mouse tumor at 8 to 10 uCi, iv after 120 mins by gamma counting; type: ADME, organism-based, Neoplasm, CCRF S-180; conditions: in vivo, 2 h
Liver [42] = assay: Biodistribution in S180 tumor-bearing mouse liver at 8 to 10 uCi, iv after 60 mins by gamma counting; type: ADME, organism-based; conditions: in vivo, 1 h
Mus musculus [43] = assay: Biodistribution in S180 cells xenografted in mouse tumor at 8 to 10 uCi, iv after 30 mins by gamma counting; type: ADME, organism-based, Neoplasm, CCRF S-180; conditions: in vivo, 0.5 h
Muscle tissue [44] = assay: Biodistribution in S180 tumor-bearing mouse muscle at 8 to 10 uCi, iv after 120 mins by gamma counting; type: ADME, organism-based; conditions: in vivo, 2 h
Stomach [45] = assay: Biodistribution in S180 tumor-bearing mouse stomach at 8 to 10 uCi, iv after 120 mins by gamma counting; type: ADME, organism-based; conditions: in vivo, 2 h
Nucleic Acid [46] = assay: Ratio of drug level in tumor to brain in S180 tumor-bearing mouse at 8 to 10 uCi, iv at 120 mins by gamma counting; type: ADME, organism-based; conditions: in vivo, 2 h
Blood [47] = assay: Biodistribution in S180 tumor-bearing mouse blood at 8 to 10 uCi, iv after 30 mins by gamma counting; type: ADME, organism-based; conditions: in vivo, 0.5 h
Brain [48] = assay: Biodistribution in S180 tumor-bearing mouse brain at 8 to 10 uCi, iv after 5 mins by gamma counting; type: ADME, organism-based; conditions: in vivo
Spleen [49] = assay: Biodistribution in S180 tumor-bearing mouse spleen at 8 to 10 uCi, iv after 60 mins by gamma counting; type: ADME, organism-based; conditions: in vivo, 1 h
Brain [50] = assay: Biodistribution in S180 tumor-bearing mouse brain at 8 to 10 uCi, iv after 60 mins by gamma counting; type: ADME, organism-based; conditions: in vivo, 1 h
Spleen [51] = assay: Biodistribution in S180 tumor-bearing mouse spleen at 8 to 10 uCi, iv after 5 mins by gamma counting; type: ADME, organism-based; conditions: in vivo
Heart [52] = assay: Biodistribution in S180 tumor-bearing mouse heart at 8 to 10 uCi, iv after 5 mins by gamma counting; type: ADME, organism-based; conditions: in vivo
[53] = n-octanol-PBS partition coefficient, logP of the compound; type: physicochemical
Liver [54] = assay: Biodistribution in S180 tumor-bearing mouse liver at 8 to 10 uCi, iv after 120 mins by gamma counting; type: ADME, organism-based; conditions: in vivo, 2 h
Heart [55] = assay: Biodistribution in S180 tumor-bearing mouse heart at 8 to 10 uCi, iv after 60 mins by gamma counting; type: ADME, organism-based; conditions: in vivo, 1 h
Spleen [56] = assay: Biodistribution in S180 tumor-bearing mouse spleen at 8 to 10 uCi, iv after 120 mins by gamma counting; type: ADME, organism-based; conditions: in vivo, 2 h

- Drug uptake (Lung [1]): 3.6 % ID/g
- Ratio (Nucleic Acid [2]): 2.5
- Ratio (Nucleic Acid [3]): 0.25
- CL (Blood [4]): 90%
- Drug uptake (Heart [5]): 2.85 % ID/g
- Ratio (Nucleic Acid [6]): 9.93
- Drug uptake (Muscle tissue [7]): 0.74 % ID/g
- Drug uptake (Kidney [8]): 4.16 % ID/g
- Drug uptake (Spleen [9]): 1.93 % ID/g
- Stability [10]: Stable
- Drug uptake (Stomach [11]): 8.56 % ID/g
- Drug uptake (Stomach [12]): 4.14 % ID/g
- Drug uptake (Blood [13]): 0.77 % ID/g
- Ratio (Nucleic Acid [14]): 1.91
- Drug uptake (Lung [15]): 2.99 % ID/g
- Drug uptake (Muscle tissue [16]): 1.74 % ID/g
- Ratio (Nucleic Acid [17]): 0.19
- Drug uptake (Brain [18]): 2.59 % ID/g
- Drug uptake (Liver [19]): 8.75 % ID/g
- Drug uptake (Kidney [20]): 6.35 % ID/g
- Drug uptake (Kidney [21]): 1.27 % ID/g
- Drug uptake (Lung [22]): 1.62 % ID/g
- Drug uptake (Stomach [23]): 5.94 % ID/g
- Drug uptake (Mus musculus [24]): 2.98 % ID/g
- Stability (Plasma): Stable
- Drug uptake (Kidney [25]): 2.53 % ID/g
- Drug uptake (Mus musculus [26]): 1.4 % ID/g
- Ratio (Nucleic Acid [27]): 1.33
- Drug uptake (Lung [28]): 1.88 % ID/g
- Ratio (Nucleic Acid [29]): 1.08
- Ratio (Nucleic Acid [30]): 2.35
- Drug uptake (Blood [31]): 1.19 % ID/g
- Drug uptake (Blood [32]): 7.56 % ID/g
- Drug uptake (Muscle tissue [33]): 0.82 % ID/g
- Drug uptake (Liver [34]): 7.63 % ID/g
- Ratio (Nucleic Acid [35]): 1.28
- Ratio (Nucleic Acid [36]): 1.89
- Stability [37]: Stable
- Drug uptake (Heart [38]): 1.03 % ID/g
- Drug uptake (Brain [39]): 1.5 % ID/g
- Ratio (Nucleic Acid [40]): 3.63
- Drug uptake (Mus musculus [41]): 1.81 % ID/g
- Drug uptake (Liver [42]): 4.07 % ID/g
- Drug uptake (Mus musculus [43]): 3.32 % ID/g
- Drug uptake (Muscle tissue [44]): 1.36 % ID/g
- Drug uptake (Stomach [45]): 1.07 % ID/g
- Ratio (Nucleic Acid [46]): 1.21
- Drug uptake (Blood [47]): 3.06 % ID/g
- Drug uptake (Brain [48]): 5.51 % ID/g
- Drug uptake (Spleen [49]): 0.77 % ID/g
- Drug uptake (Brain [50]): 0.3 % ID/g
- Drug uptake (Spleen [51]): 0.98 % ID/g
- Drug uptake (Heart [52]): 8.68 % ID/g
- logP [53]: 1.64
- Drug uptake (Liver [54]): 3.4 % ID/g
- Drug uptake (Heart [55]): 1.99 % ID/g
- Drug uptake (Spleen [56]): 1.04 % ID/g
Compound: C#Cc1cccc(Nc2ncnc3cc(OC)c(OCC[18F])cc23)c1
